# From publication PMC3598812, “Evaluation of Anti-Hyperalgesic and Analgesic Effects of Two Benzodiazepines in Human Experimental Pain: A Randomized Placebo-Controlled Study” (PLoS ONE, 2013)
# “Also recorded” adds a separate entry of the source.
# Experiments:
# Type in all cases: in vivo, human
# healthy male volunteers [1] = assay: Pain rating (VAS) after graded von Frey hair stimulation in the capsaicin hyperalgesic area; settings: VAS 0-10, single oral dose (clobazam 20 mg, clonazepam 1 mg, tolterodine 1 mg), mean (SD)
# Description: Additionally, mechanical pain sensitivity was assessed using a set of seven weighted pinprick stimuli to obtain a stimulus-response function. The test was applied 1 cm inside the outer border of the pinprick hyperalgesic area, using a set of 7 graded von Frey hair mechanical stimulators with fixed stimulus intensities (custom-made at Aalborg University, Denmark). The flat contact area of the stimulators has a 0.2 mm diameter, and the 7 stimulators exert forces of 8, 16, 32, 64, 128, 256 and 512 mN. The order of stimulation was defined randomly by computer. The stimulators were applied at a rate of 2 s on/2 s off. Subjects were asked to give a pain rating for each stimulus on a 10 cm VAS. Two assessments for each stimulation were made and the mean of these 2 measurements was used for the data analysis.
# healthy male volunteers [2] = assay: Cutaneous repeated (5 stimuli) electrical stimulation, temporal summation threshold; settings: mean (SD)
# From the text: (§1) The stimulus burst used for single stimulus was repeated 5 times at 2 Hz, at constant intensity. The current intensity of the 5 stimuli was increased from 1 mA in steps of 0.5 mA until the subjects felt pain during the last 2–3 of the 5 stimuli (indicating temporal summation).
# Three assessments were made and the mean of these 3 measurements was used for the data analysis.
# healthy male volunteers [3] = assay: Intramuscular repeated (5 stimuli) electrical stimulation pain threshold; settings: for Pain threshold after 5 intramuscular electrical stimuli: mean (SD); for Change in pain threshold after 5 intramuscular electrical stimuli between baseline and 120 minutes: main analysis, pairwise multiple comparison
# From the text: as §1
# (§2) A needle was placed in the tibialis anterior muscle, 14 cm distal from the caudal end of the patella and 20 mm in depth. The same single and repeated stimulation patterns and the same procedure described for cutaneous stimulation were used.
# healthy male volunteers [4] = assay: Intramuscular repeated (20 stimuli) electrical stimulation, VAS; set-up: AUC of VAS during 20 intramuscular electrical stimuli: unit not given beside the values; settings: mean (SD); for Maximal VAS during 20 intramuscular electrical stimuli: VAS 0-10
# Description: The stimulus burst used for single stimulus was repeated for a train of 20 pulses at 2 Hz, at an intensity corresponding to the temporal summation threshold. During this 10 s stimulation, pain intensity was continuously rated by the subject with an electronic VAS, and the area under the curve (AUC) was computed. Additionally, the maximal VAS during stimulation was recorded.
# as §2
# healthy male volunteers [5] = assay: Area of static hyperalgesia after intradermal capsaicin injection (512 mN von Frey hair); settings: for Area of static hyperalgesia: single oral dose (clobazam 20 mg, clonazepam 1 mg, tolterodine 1 mg), mean (SD)
# From the text: Intradermal injection of capsaicin causes a brief stinging/burning pain at the injection site followed by development of secondary hyperalgesia, i.e. hyperalgesia detected at surrounding (not injected) skin [15], [16]. Secondary hyperalgesia after intradermal capsaicin is the result of sensitization of the central nervous system, which is one of the most relevant aspects of neuroplastic changes. This model was sensitive to the action of GABAergic compounds in animal studies.
# The capsaicin solution was prepared by the Hospital Pharmacy and underwent sterile filtration into sterile septum-sealed vials. The sterile solution (1 mg/ml) was placed into sterile syringes and used for intradermal injection at room temperature. The skin temperature was measured using a digital thermometer, and was 32°C+/−1 in all subjects.
# Subjects remained semi-supine during the experiment. Before capsaicin injection, the skin of the forearm was cleaned using an antiseptic wipe and allowed to air dry. The injection site was marked midway between the elbow and the wrist. Using a surgical skin marker, 4 lines were drawn through the injection site, so that they intersected the corners of a regular octagon (figure 2). These lines were marked every 0.5 cm from the center to the edges using a predefined grid. […] We determined the area of hyperalgesia by adding the areas of each triangle in which hyperalgesia was recorded.
# Using a 1-ml tuberculin syringe fitted with a 27-gauge disposable needle, 100 µl capsaicin were injected […] into the skin, at the intersection of the 4 vectors previously drawn. A white skin elevation appeared during injection ensuring correct injection.
# Static mechanical hyperalgesia was judged to be present when the subjects reported that applying a 512 mN von Frey Hair, 5 and 30 minutes after capsaicin injection, elicited pain with an intensity of at least 4 using a numerical rating scale (NRS, whereby 0 = no pain and 10 = worst pain). Only these subjects were included in the study. In order to document pain induction, the subject recorded pain intensity at injection and 5 minutes post-injection using a 10 cm visual analogue pain scale (VAS), whereby 0 = no pain and 10 = worst pain imaginable.
# The area of secondary hyperalgesia was assessed using a calibrated 512 mN von Frey hair. The punctuated probe was moved along the 8 radial lines defined above, starting approximately 6 cm away from the site of injection, at each mark in steps of 0.5 cm. The weighted von Frey hair was placed gently on the skin and the load was applied for 2 seconds. The volunteers were asked to report when the pricking sensation changed to a pain sensation. At least 4 seconds elapsed between consecutive stimuli. This procedure was repeated for each vector. The number corresponding to the marker at which sensation changes as described above was noted and the individual numbers were used to calculate the area of hyperalgesia.
# The flow of the experiment is illustrated in figure 3. After training, basal values for the pain tests were determined. The study medication was given immediately after the intradermal injection of capsaicin. Thus, basal values were recorded for all tests, except for those related to capsaicin injection. Because of the relatively short duration of hyperalgesia induced by capsaicin, the recordings of basal values before drug administration would yield a too short testing procedure.
# [6] = baseline before medication, per drug session
# [7] = single oral dose (clobazam 20 mg, clonazepam 1 mg, tolterodine 1 mg), 120 min after medication
# [8] = single oral dose (clobazam 20 mg, clonazepam 1 mg, tolterodine 1 mg), after flumazenil 0.2 mg iv
smiles,measurement,setting,value
Cc1ccc(O)c([C@H](CCN(C(C)C)C(C)C)c2ccccc2)c1 [Tolterodine],VAS after von Frey hair 8 mN,healthy male volunteers [1]; 30 min after medication,1.3 (1.5)
same,VAS after von Frey hair 16 mN,healthy male volunteers [1]; 30 min after medication,1.7 (1.8)
same,VAS after von Frey hair 32 mN,healthy male volunteers [1]; 30 min after medication,2.5 (1.9)
same,VAS after von Frey hair 64 mN,healthy male volunteers [1]; 30 min after medication,3.2 (2.3)
same,VAS after von Frey hair 128 mN,healthy male volunteers [1]; 30 min after medication,3.4 (2.2)
same,VAS after von Frey hair 256 mN,healthy male volunteers [1]; 30 min after medication,4.2 (2.1)
same,VAS after von Frey hair 512 mN,healthy male volunteers [1]; 30 min after medication,4.9 (2.0)
same,VAS after von Frey hair 8 mN,healthy male volunteers [1]; 60 min after medication,1.2 (1.3)
same,VAS after von Frey hair 16 mN,healthy male volunteers [1]; 60 min after medication,1.9 (1.9)
same,VAS after von Frey hair 32 mN,healthy male volunteers [1]; 60 min after medication,2.7 (2.2)
same,VAS after von Frey hair 64 mN,healthy male volunteers [1]; 60 min after medication,2.9 (1.8)
same,VAS after von Frey hair 128 mN,healthy male volunteers [1]; 60 min after medication,3.5 (2.2)
same,VAS after von Frey hair 256 mN,healthy male volunteers [1]; 60 min after medication,4.2 (2.1)
same,VAS after von Frey hair 512 mN,healthy male volunteers [1]; 60 min after medication,5.2 (2.0)
same,VAS after von Frey hair 8 mN,healthy male volunteers [1]; 90 min after medication,1.2 (1.4)
same,VAS after von Frey hair 16 mN,healthy male volunteers [1]; 90 min after medication,1.6 (1.9)
same,VAS after von Frey hair 32 mN,healthy male volunteers [1]; 90 min after medication,2.2 (1.4)
same,VAS after von Frey hair 64 mN,healthy male volunteers [1]; 90 min after medication,2.8 (2.0)
same,VAS after von Frey hair 128 mN,healthy male volunteers [1]; 90 min after medication,3.1 (2.0)
same,VAS after von Frey hair 256 mN,healthy male volunteers [1]; 90 min after medication,4.2 (2.0)
same,VAS after von Frey hair 512 mN,healthy male volunteers [1]; 90 min after medication,4.9 (2.1)
same,VAS after von Frey hair 8 mN,healthy male volunteers [1]; 120 min after medication,1.0 (0.9)
same,VAS after von Frey hair 16 mN,healthy male volunteers [1]; 120 min after medication,1.4 (1.3)
same,VAS after von Frey hair 32 mN,healthy male volunteers [1]; 120 min after medication,1.9 (1.3)
same,VAS after von Frey hair 64 mN,healthy male volunteers [1]; 120 min after medication,2.3 (1.5)
same,VAS after von Frey hair 128 mN,healthy male volunteers [1]; 120 min after medication,2.9 (2.0)
same,VAS after von Frey hair 256 mN,healthy male volunteers [1]; 120 min after medication,4.1 (2.5)
same,VAS after von Frey hair 512 mN,healthy male volunteers [1]; 120 min after medication,4.8 (2.2)
same,VAS after von Frey hair 8 mN,healthy male volunteers [1]; after flumazenil 0.2 mg iv,1.1 (1.2)
same,VAS after von Frey hair 16 mN,healthy male volunteers [1]; after flumazenil 0.2 mg iv,1.1 (0.9)
same,VAS after von Frey hair 32 mN,healthy male volunteers [1]; after flumazenil 0.2 mg iv,2.1 (1.6)
same,VAS after von Frey hair 64 mN,healthy male volunteers [1]; after flumazenil 0.2 mg iv,2.6 (1.7)
same,VAS after von Frey hair 128 mN,healthy male volunteers [1]; after flumazenil 0.2 mg iv,2.6 (1.5)
same,VAS after von Frey hair 256 mN,healthy male volunteers [1]; after flumazenil 0.2 mg iv,4.1(1.7)
same,VAS after von Frey hair 512 mN,healthy male volunteers [1]; after flumazenil 0.2 mg iv,5.0 (2.2)
same,Pain threshold after 5 cutaneous electrical stimuli,healthy male volunteers [2]; [6],8.8 (2.3) mA
same,Pain threshold after 5 cutaneous electrical stimuli,"healthy male volunteers [2]; single oral dose (clobazam 20 mg, clonazepam 1 mg, tolterodine 1 mg), 30 min after medication",9.0 (2.4) mA
same,Pain threshold after 5 cutaneous electrical stimuli,"healthy male volunteers [2]; single oral dose (clobazam 20 mg, clonazepam 1 mg, tolterodine 1 mg), 60 min after medication",9.2 (2.2) mA
same,Pain threshold after 5 cutaneous electrical stimuli,"healthy male volunteers [2]; single oral dose (clobazam 20 mg, clonazepam 1 mg, tolterodine 1 mg), 90 min after medication",9.5 (2.2) mA
same,Pain threshold after 5 cutaneous electrical stimuli,healthy male volunteers [2]; [7],9.7 (2.1) mA
same,Pain threshold after 5 cutaneous electrical stimuli,healthy male volunteers [2]; [8],10.0 (2.3) mA
same,Pain threshold after 5 intramuscular electrical stimuli,healthy male volunteers [3]; [6],1.6 (1.2) mA
same,Change in pain threshold after 5 intramuscular electrical stimuli between baseline and 120 minutes,healthy male volunteers [3],not
same,Change in pain threshold after 5 intramuscular electrical stimuli between baseline and 120 minutes,healthy male volunteers [3]; listed as tolterodine,no statistically significant change
same,Change in pain detection threshold after 5 intramuscular electrical stimuli from baseline to peak value,"healthy male volunteers [3]; peak value analysis, pairwise comparisons within each drug",not
same,Pain threshold after 5 intramuscular electrical stimuli,healthy male volunteers [3]; [7],1.9 (1.2) mA
same,Pain threshold after 5 intramuscular electrical stimuli,healthy male volunteers [3]; [8],2.2 (1.5) mA
same,Maximal VAS during 20 intramuscular electrical stimuli,healthy male volunteers [4]; [6],4.5 (1.6)
same,Maximal VAS during 20 intramuscular electrical stimuli,healthy male volunteers [4]; [7],3.8 (2.4)
same,Maximal VAS during 20 intramuscular electrical stimuli,healthy male volunteers [4]; [8],4.1 (2.5)
same,AUC of VAS during 20 intramuscular electrical stimuli,healthy male volunteers [4]; [6],323 (127)
same,AUC of VAS during 20 intramuscular electrical stimuli,healthy male volunteers [4]; [7],286 (198)
same,AUC of VAS during 20 intramuscular electrical stimuli,healthy male volunteers [4]; [8],316 (206)
same,Change in the area of static hyperalgesia over time,"healthy male volunteers [5]; main analysis, pairwise multiple comparisons within each drug",significantly increased; also recorded: Significant increase in the area of hyperalgesia only for tolterodine
same,Area of static hyperalgesia,healthy male volunteers [5]; 30 min after medication,36.3 (10.6) cm^2
same,Area of static hyperalgesia,healthy male volunteers [5]; 60 min after medication,40.6 (11.5) cm^2
same,Area of static hyperalgesia,healthy male volunteers [5]; 90 min after medication,43.8 (11.9) cm^2
same,Area of static hyperalgesia,healthy male volunteers [5]; 120 min after medication,44.7 (10.9) cm^2
same,Area of static hyperalgesia,healthy male volunteers [5]; after flumazenil 0.2 mg iv,47.6 (13.7) cm^2
